According to ChEMBL document CHEMBL1140940, “Pyrido[2,3-d]pyrimidin-5-ones: a novel class of antiinflammatory macrophage colony-stimulating factor-1 receptor inhibitors” (J Med Chem, 2009):
Activity calls are given as the source filed them. The calls are words filed in the database; no cut-off is given here.

How the values were obtained:
[1] = Metabolic stability in monkey liver microsomes after 10 mins; assay type: ADME, Macaca mulatta, Microsome; conditions: rhesus monkey, read-out: Stability
[2] = Clearance in Sprague-Dawley rat at 2 mg/kg, iv; assay type: ADME, organism-based; set-up: dose 2 mg/kg, route intravenous; conditions: in vivo
Rattus norvegicus [3] = test: Reversal of ankle swelling in streptococcal cell wall-induced Lewis rat chronic arthritis model at 3 mg/kg, po twice daily administered on day 19 post streptococcal cell wall challenge; assay type: functional, organism-based; set-up: dose 3 mg/kg
[4] = biological target: High affinity nerve growth factor receptor (Homo sapiens, UniProt P04629); test: Inhibition of TrkA by fluorescence polarization competition immunoassay
Rattus norvegicus [5] = test: Antiinflammatory effect in Freund's complete adjuvant-induced Lewis rat arthritis model assessed as prevention of bone erosion at 3 mg/kg, po twice daily administered on day 8 post adjuvant challenge measured on day 21 post adjuvant challenge relative to control; assay type: functional, organism-based; set-up: dose 3 mg/kg
[6] = Plasma concentration in Freund's complete adjuvant-induced Lewis rat arthritis model at 1 mg/kg, po twice daily administered on day 8 post adjuvant challenge measured 7 days after last dose; assay type: ADME, organism-based; set-up: dose 1 mg/kg, route oral
[7] = Cmax in Sprague-Dawley rat at 10 mg/kg, po; assay type: ADME, organism-based; set-up: dose 10 mg/kg, route oral; conditions: in vivo
[8] = Clearance in dog at 2 mg/kg, iv; assay type: ADME, organism-based, Canis lupus familiaris; set-up: dose 2 mg/kg, route intravenous; conditions: in vivo
[9] = Half life in monkey at 2 mg/kg, iv; assay type: ADME, organism-based, Macaca mulatta; set-up: dose 2 mg/kg, route intravenous; conditions: rhesus monkey, in vivo
[10] = Oral bioavailability in monkey at 10 mg/kg; assay type: ADME, organism-based, Macaca mulatta; conditions: rhesus monkey, in vivo
[11] = Cmax in dog at 10 mg/kg, po; assay type: ADME, organism-based, Canis lupus familiaris; set-up: dose 10 mg/kg, route oral; conditions: in vivo
[12] = biological target: Mast/stem cell growth factor receptor Kit (Homo sapiens, UniProt P10721); test: Inhibition of KIT by fluorescence polarization competition immunoassay
[13] = Oral bioavailability in dog at 10 mg/kg; assay type: ADME, organism-based, Canis lupus familiaris; conditions: in vivo
Rattus norvegicus [14] = test: Antiinflammatory effect in Freund's complete adjuvant-induced Lewis rat arthritis model assessed as prevention of osteoclastogenesis at 3 mg/kg, po twice daily administered on day 8 post adjuvant challenge measured on day 21 post adjuvant challenge relative to control; assay type: functional, organism-based; set-up: dose 3 mg/kg
[15] = biological target: Proto-oncogene tyrosine-protein kinase Src (Homo sapiens, UniProt P12931); test: Inhibition of Src by fluorescence polarization competition immunoassay
[16] = Half life in dog at 2 mg/kg, iv; assay type: ADME, organism-based, Canis lupus familiaris; set-up: dose 2 mg/kg, route intravenous; conditions: in vivo
Rattus norvegicus [17] = test: Antiinflammatory effect in Freund's complete adjuvant-induced Lewis rat arthritis model assessed as prevention of bone erosion at 10 mg/kg, po twice daily administered on day 8 post adjuvant challenge measured on day 21 post adjuvant challenge relative to control; assay type: functional, organism-based; set-up: dose 10 mg/kg
[18] = biological target: Platelet-derived growth factor receptor beta (Homo sapiens, UniProt P09619); test: Inhibition of PDGFRbeta by fluorescence polarization competition immunoassay
[19] = Volume of distribution at steady state in dog at 2 mg/kg, iv; assay type: ADME, organism-based, Canis lupus familiaris; set-up: dose 2 mg/kg, route intravenous; conditions: in vivo, read-out: Vdss
[20] = Clearance in monkey at 2 mg/kg, iv; assay type: ADME, organism-based, Macaca mulatta; set-up: dose 2 mg/kg, route intravenous; conditions: rhesus monkey, in vivo
Rattus norvegicus [21] = test: Reversal of ankle swelling in streptococcal cell wall-induced Lewis rat chronic arthritis model at 1 mg/kg, po twice daily administered on day 19 post streptococcal cell wall challenge; assay type: functional, organism-based; set-up: dose 1 mg/kg
Rattus norvegicus [22] = test: Inhibition of ankle swelling in Freund's complete adjuvant-induced Lewis rat arthritis model at 3 mg/kg, po twice daily administered on day 8 post adjuvant challenge measured on day 21 post adjuvant challenge relative to control; assay type: functional
[23] = Oral bioavailability in Sprague-Dawley rat at 10 mg/kg; assay type: ADME, organism-based; conditions: in vivo
[24] = Metabolic stability in rat liver microsomes after 10 mins; assay type: ADME, Microsome; conditions: read-out: Stability
[25] = Clearance in mouse at 2 mg/kg, iv; assay type: ADME, organism-based; set-up: dose 2 mg/kg, route intravenous; conditions: in vivo
[26] = biological target: T1, Tyrosine-protein kinase receptor UFO (Homo sapiens, UniProt P30530); test: Inhibition of Axl by fluorescence polarization competition immunoassay
T1 sequence (P30530 whole entry): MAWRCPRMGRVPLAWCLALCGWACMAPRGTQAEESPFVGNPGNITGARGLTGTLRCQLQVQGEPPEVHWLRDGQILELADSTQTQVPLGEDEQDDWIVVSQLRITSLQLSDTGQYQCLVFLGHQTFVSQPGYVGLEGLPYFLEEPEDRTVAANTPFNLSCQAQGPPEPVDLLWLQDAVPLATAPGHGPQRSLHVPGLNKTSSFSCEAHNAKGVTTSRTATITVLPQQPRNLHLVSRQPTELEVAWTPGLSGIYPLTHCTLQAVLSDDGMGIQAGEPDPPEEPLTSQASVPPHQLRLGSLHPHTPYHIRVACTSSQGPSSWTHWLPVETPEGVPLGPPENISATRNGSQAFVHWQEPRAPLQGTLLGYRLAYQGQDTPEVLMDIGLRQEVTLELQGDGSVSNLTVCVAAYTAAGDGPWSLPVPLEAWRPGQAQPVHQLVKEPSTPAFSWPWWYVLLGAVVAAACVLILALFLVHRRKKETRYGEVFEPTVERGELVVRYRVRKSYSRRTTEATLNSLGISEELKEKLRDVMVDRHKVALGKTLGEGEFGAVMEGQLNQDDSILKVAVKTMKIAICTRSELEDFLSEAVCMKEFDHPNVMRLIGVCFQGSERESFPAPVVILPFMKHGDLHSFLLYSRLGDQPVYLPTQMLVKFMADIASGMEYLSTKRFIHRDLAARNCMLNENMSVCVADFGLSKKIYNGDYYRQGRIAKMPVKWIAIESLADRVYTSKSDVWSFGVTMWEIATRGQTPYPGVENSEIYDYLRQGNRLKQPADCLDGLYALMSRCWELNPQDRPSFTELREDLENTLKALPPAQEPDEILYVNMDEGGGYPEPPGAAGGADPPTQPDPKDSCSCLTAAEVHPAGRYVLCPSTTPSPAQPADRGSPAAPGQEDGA

[27] = Plasma concentration in Freund's complete adjuvant-induced Lewis rat arthritis model at 3 mg/kg, po twice daily administered on day 8 post adjuvant challenge measured 7 days after last dose; assay type: ADME, organism-based; set-up: dose 3 mg/kg, route oral
[28] = Half life in mouse at 2 mg/kg, iv; assay type: ADME, organism-based; set-up: dose 2 mg/kg, route intravenous; conditions: in vivo
[29] = Plasma concentration CSF1-induced B6C3F1 mouse at 3 mg/kg, po after 6 hrs; assay type: ADME, organism-based; set-up: dose 3 mg/kg, route oral
[30] = Plasma concentration in Freund's complete adjuvant-induced Lewis rat arthritis model at […], po twice daily administered on day 8 post adjuvant challenge measured 7 days after last dose; assay type: ADME, organism-based; set-up: dose 0.33 mg/kg, route oral
Rattus norvegicus [31] = test: Inhibition of ankle swelling in Freund's complete adjuvant-induced Lewis rat arthritis model at 10 mg/kg, po twice daily administered on day 8 post adjuvant challenge measured on day 21 post adjuvant challenge relative to control; assay type: functional
[32] = Volume of distribution at steady state in mouse at 2 mg/kg, iv; assay type: ADME, organism-based; set-up: dose 2 mg/kg, route intravenous; conditions: in vivo, read-out: Vdss
Rattus norvegicus [33] = test: Toxicity in rat assessed as tolerability at 40 mg/kg; assay type: organism-based; set-up: dose 40 mg/kg; conditions: in vivo
Rattus norvegicus [34] = test: Toxicity in rat assessed as tolerability at 10 mg/kg; assay type: organism-based; set-up: dose 10 mg/kg; conditions: in vivo
Rattus norvegicus [35] = test: Inhibition of ankle swelling in Freund's complete adjuvant-induced Lewis rat arthritis model at 1 mg/kg, po twice daily administered on day 8 post adjuvant challenge measured on day 21 post adjuvant challenge relative to control; assay type: functional
Insulin receptor = Insulin receptor (Homo sapiens, UniProt P06213); test: Inhibition of IRKbeta by fluorescence polarization competition immunoassay
[36] = Cmax in mouse at 10 mg/kg, po; assay type: ADME, organism-based; set-up: dose 10 mg/kg, route oral; conditions: in vivo

Chain of Mast/stem cell growth factor receptor Kit (P10721 whole entry): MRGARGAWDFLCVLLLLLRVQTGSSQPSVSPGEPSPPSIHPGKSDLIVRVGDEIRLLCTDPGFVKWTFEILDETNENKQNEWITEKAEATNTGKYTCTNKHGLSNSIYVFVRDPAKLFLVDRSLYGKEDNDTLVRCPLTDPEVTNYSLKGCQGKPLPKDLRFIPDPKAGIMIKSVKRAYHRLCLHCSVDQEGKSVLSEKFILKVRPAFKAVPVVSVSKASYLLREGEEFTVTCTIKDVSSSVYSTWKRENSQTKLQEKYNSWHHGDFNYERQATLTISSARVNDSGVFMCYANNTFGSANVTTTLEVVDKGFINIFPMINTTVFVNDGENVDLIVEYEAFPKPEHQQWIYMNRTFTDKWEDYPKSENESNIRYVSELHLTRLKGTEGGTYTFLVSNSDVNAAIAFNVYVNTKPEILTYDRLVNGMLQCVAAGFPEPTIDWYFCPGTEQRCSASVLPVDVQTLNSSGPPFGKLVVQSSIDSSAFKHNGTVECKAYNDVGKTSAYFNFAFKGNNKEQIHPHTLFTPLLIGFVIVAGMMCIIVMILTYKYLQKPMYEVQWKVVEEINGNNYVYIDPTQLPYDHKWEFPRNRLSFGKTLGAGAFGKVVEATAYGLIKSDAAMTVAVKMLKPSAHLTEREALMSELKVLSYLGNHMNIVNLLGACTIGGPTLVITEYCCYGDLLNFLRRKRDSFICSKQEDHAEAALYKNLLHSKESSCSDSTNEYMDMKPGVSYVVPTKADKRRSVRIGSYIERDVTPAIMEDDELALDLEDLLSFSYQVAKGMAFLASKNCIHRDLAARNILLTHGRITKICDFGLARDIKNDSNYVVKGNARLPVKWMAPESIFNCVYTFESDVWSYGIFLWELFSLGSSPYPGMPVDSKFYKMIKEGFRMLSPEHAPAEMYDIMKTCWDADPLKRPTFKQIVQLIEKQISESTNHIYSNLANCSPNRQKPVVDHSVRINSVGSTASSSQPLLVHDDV
Chain of Insulin receptor (P06213 28-758 limits assumed): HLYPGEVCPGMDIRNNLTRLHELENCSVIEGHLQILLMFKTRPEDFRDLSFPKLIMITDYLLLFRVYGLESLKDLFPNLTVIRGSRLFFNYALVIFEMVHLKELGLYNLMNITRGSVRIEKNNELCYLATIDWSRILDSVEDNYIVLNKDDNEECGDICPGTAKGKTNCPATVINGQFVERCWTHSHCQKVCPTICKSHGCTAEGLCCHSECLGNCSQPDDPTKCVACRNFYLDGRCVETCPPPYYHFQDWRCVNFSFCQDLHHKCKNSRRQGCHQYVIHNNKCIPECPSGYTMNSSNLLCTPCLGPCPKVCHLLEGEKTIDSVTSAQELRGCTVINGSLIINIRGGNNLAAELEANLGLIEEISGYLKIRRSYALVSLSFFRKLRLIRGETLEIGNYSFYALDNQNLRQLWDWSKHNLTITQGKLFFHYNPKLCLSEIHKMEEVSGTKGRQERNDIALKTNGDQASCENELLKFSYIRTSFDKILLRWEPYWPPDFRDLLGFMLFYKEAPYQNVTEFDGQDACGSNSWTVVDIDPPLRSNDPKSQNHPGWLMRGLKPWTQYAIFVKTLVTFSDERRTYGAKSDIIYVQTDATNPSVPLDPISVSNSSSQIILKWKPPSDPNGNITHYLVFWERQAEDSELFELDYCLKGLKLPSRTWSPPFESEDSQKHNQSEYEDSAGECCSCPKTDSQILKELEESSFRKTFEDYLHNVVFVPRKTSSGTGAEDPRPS
Chain of Insulin receptor (P06213 763-1382 limits assumed): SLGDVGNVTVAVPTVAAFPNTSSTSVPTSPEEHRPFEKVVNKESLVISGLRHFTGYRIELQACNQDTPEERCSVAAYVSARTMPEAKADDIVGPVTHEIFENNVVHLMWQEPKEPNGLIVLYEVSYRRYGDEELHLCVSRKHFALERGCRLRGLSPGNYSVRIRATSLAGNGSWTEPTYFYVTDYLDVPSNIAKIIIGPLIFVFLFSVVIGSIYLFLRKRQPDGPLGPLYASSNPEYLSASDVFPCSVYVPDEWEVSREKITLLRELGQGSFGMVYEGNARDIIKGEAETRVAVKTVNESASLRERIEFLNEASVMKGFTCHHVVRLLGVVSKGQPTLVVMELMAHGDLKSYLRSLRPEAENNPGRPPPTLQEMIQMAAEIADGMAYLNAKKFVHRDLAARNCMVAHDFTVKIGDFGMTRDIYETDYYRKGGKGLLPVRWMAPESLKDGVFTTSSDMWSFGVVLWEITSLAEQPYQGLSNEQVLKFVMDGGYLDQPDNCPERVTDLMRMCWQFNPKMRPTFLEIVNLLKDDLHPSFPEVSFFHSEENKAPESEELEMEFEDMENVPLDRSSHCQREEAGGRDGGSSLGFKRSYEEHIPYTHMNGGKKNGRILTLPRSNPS
Chain of Proto-oncogene tyrosine-protein kinase Src (P12931 2-536 limits assumed): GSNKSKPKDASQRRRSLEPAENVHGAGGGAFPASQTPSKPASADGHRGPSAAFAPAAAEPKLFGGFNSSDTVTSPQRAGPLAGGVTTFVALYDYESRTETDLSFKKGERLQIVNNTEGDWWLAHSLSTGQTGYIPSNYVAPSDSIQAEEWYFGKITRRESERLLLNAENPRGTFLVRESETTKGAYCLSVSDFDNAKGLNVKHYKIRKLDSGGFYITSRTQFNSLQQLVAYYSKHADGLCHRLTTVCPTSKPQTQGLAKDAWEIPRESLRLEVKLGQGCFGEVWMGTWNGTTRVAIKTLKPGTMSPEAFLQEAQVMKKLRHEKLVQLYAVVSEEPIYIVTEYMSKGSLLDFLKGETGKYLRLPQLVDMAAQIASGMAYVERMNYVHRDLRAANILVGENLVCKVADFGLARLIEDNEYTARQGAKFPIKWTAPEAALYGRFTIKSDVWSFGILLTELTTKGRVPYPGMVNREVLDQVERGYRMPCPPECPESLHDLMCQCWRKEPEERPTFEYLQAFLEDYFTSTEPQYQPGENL
Chain of Platelet-derived growth factor receptor beta (P09619 whole entry): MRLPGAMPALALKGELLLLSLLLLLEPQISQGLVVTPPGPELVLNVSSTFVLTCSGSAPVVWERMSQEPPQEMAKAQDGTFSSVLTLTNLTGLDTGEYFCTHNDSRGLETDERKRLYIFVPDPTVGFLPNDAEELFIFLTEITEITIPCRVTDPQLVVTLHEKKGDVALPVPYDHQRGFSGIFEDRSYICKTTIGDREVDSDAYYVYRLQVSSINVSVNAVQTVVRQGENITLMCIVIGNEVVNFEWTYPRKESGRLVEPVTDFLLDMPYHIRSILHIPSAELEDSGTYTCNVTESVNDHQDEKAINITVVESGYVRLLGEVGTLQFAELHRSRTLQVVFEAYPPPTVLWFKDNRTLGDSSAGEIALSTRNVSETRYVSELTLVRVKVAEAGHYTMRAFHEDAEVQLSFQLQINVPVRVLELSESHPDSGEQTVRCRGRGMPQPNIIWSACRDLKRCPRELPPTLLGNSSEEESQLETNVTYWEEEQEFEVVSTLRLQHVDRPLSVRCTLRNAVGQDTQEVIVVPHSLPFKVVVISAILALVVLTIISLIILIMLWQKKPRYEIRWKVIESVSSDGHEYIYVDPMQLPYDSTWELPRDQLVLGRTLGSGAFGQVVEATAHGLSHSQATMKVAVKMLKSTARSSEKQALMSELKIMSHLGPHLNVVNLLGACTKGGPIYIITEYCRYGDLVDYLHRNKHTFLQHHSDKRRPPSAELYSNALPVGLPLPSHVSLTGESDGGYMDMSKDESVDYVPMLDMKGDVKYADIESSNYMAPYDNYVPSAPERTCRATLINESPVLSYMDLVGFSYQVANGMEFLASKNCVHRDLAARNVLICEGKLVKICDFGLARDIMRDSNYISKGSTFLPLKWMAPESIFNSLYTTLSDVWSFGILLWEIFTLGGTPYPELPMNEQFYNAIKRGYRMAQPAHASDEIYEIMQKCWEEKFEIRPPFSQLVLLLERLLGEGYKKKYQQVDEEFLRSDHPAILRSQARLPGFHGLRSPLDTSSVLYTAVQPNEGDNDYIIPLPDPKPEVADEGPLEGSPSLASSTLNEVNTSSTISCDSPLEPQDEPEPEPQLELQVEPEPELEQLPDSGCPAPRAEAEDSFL
Chain of High affinity nerve growth factor receptor (P04629 whole entry): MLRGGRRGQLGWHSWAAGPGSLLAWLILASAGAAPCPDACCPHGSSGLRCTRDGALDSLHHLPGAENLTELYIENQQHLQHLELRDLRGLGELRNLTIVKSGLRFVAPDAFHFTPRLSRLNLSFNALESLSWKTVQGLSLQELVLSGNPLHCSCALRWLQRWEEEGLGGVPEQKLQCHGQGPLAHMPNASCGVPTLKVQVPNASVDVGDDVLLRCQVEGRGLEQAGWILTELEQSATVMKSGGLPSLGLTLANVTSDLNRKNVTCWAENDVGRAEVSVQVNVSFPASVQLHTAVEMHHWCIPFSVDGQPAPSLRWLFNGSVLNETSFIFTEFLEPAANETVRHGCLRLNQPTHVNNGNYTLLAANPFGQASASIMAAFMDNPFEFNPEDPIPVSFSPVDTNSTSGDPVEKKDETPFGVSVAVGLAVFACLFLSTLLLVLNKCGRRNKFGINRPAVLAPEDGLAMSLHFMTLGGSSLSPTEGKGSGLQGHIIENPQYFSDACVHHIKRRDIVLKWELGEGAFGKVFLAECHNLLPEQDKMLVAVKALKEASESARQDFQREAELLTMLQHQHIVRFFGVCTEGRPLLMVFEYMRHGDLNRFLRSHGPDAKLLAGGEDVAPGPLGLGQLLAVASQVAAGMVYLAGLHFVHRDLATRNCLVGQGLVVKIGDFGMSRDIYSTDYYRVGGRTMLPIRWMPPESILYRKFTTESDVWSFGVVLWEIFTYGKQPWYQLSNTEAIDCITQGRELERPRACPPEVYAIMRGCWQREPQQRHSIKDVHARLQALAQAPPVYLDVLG

remaining at 10 min [1]: 14% | clearance [2]: 11 mL/min/kg | IC50 [4]: 500 nM | concentration at 168 h [6]: 55 nM | Cmax [7]: 1600 nM | clearance [8]: 30 mL/min/kg | half-life [9]: 6.6 h | bioavailability [10]: 16.7% | Cmax [11]: 120 nM | IC50 [12]: 6 nM | bioavailability [13]: 33% | IC50 [15]: 1400 nM | half-life [16]: 9.3 h | IC50 [18]: 150 nM | Vd [19]: 20.3 L/kg | clearance [20]: 48.7 mL/min/kg | bioavailability [23]: 100% | remaining at 10 min [24]: 96% | clearance [25]: 34 mL/min/kg | IC50 [26]: > 1000 nM | concentration at 168 h [27]: 189 nM | half-life [28]: 1.8 h | concentration at 6 h [29]: 290 nM | concentration at 168 h [30]: 14 nM | Vd [32]: 3.6 L/kg | IC50 (Insulin receptor): 3700 nM | Cmax [36]: 1600 nM
SMILES: CONC(=O)c1cn(-c2ccc3c(c2)CCC3)c2nc(Nc3ccc(C4CCN(C)CC4)cc3)ncc2c1=O
Activity (Rattus norvegicus [3]): Active | Activity (Rattus norvegicus [5]): Active | Activity (Rattus norvegicus [14]): Active | Activity (Rattus norvegicus [17]): Active | Activity (Rattus norvegicus [21]): Active | inhibition in vivo at 3 mg/kg (Rattus norvegicus [22]): 8% | inhibition in vivo at 10 mg/kg (Rattus norvegicus [31]): 17% | Activity (Rattus norvegicus [33]): Non-toxic | Activity (Rattus norvegicus [34]): Non-toxic | inhibition in vivo at 1 mg/kg (Rattus norvegicus [35]): 2%
